Assay results: patent publication US11981686B2, “Urea compound having substituent” (DAIICHI SANKYO COMPANY, LIMITED, priority 2019, dated 2024)

Molecular target: SIRT6 enzyme (Homo sapiens, UniProt Q8N6T7)
Test: Measurement of deacetylation activity (SIRT6, AlphaLISA, H3K9(Ac) peptide)
Format: biochemical
Conditions: SIRT6 25 ng/mL, H3K9(Ac) biotin peptide 2 nM, NAD 10 μM, room temperature 30 minutes, duplicate
Summary of the method: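 SIRT6 (25 ng/mL final) in Tris-HCl pH 8.0 buffer with compound (e.g. 0.046–100 μM final) reacted with biotin-H3K9(Ac) peptide (2 nM) and NAD+ (10 μM), 30 min, room temperature. Stopped with nicotinamide plus AlphaLISA anti-unmodified H3K9/K27 beads, 60 min; EC150 (150% relative activity) from sigmoidal fit.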

Sequence of SIRT6 enzyme (Q8N6T7 whole entry, species assumed): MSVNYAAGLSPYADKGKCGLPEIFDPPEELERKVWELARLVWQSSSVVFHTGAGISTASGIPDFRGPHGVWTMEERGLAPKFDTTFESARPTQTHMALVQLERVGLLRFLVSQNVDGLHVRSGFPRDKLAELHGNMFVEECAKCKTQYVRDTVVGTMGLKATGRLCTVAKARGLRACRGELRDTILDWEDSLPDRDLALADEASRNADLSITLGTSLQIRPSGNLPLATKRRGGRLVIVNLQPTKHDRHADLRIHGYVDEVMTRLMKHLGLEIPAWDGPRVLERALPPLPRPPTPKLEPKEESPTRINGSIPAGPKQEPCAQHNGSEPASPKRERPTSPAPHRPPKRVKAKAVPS

| Structure (SMILES) | EC150 (the concentration of the compound showing a relative enzyme activity of 150%) |
| --- | --- |
| CCOc1cccc(-c2cnc(N3[C@@H]4COC[C@H]3c3sc(NC(=O)NCC(C)(C)O)nc3C4)o2)n1 [Example 79, N-{(4S,8S)-10-[5-(6-ethoxypyridin-2-yl)-1,3-oxazol-2-yl]-4,7,8,9-tetrahydro-5H-4,8-epiminooxocino[5,4-d][1,3]thiazol-2-yl}-N′-(2-hydroxy-2-methylpropyl)urea] | 1.2 μm |
| CCOc1cccc(-c2cnc(N3[C@@H]4COC[C@H]3c3sc(NC(=O)N[C@H]5C[C@H](O)C5)nc3C4)o2)n1 [Example 80, N-{(4S,8S)-10-[5-(6-ethoxypyridin-2-yl)-1,3-oxazol-2-yl]-4,7,8,9-tetrahydro-5H-4,8-epiminooxocino[5,4-d][1,3]thiazol-2-yl}-N′-[(1r,3S)-3-hydroxycyclobutyl]urea] | 0.48 μm |
| C[C@H](O)CNC(=O)Nc1nc2c(s1)C1COCC(C2)N1c1nc(-c2ccc(F)cc2)no1 (stereo partly drawn) [Example 81, N-{10-[3-(4-fluorophenyl)-1,2,4-oxadiazol-5-yl]-4,7,8,9-tetrahydro-5H-4,8-epiminooxocino[5,4-d][1,3]thiazol-2-yl}-N′-[(2S)-2-hydroxypropyl]urea] | 1.4 μm |
| C[C@@H](O)CNC(=O)Nc1nc2c(s1)C1COCC(C2)N1c1nc(-c2ccc(F)cc2)no1 (stereo partly drawn) [Example 82, N-{10-[3-(4-fluorophenyl)-1,2,4-oxadiazol-5-yl]-4,7,8,9-tetrahydro-5H-4,8-epiminooxocino[5,4-d][1,3]thiazol-2-yl}-N′-[(2R)-2-hydroxypropyl]urea] | 1.7 μm |
| COc1cc(-c2noc(N3C4COCC3c3sc(NC(=O)N[C@H](C)CO)nc3C4)n2)ccc1F (stereo partly drawn) [Example 83, N-{10-[3-(4-fluoro-3-methoxyphenyl)-1,2,4-oxadiazol-5-yl]-4,7,8,9-tetrahydro-5H-4,8-epiminooxocino[5,4-d][1,3]thiazol-2-yl}-N′-[(2R)-1-hydroxypropan-2-yl]urea] | 0.68 μm |
| O=C(Nc1nc2c(s1)C1COCC(C2)N1c1nc(-c2ccc(F)cc2)no1)N[C@H]1C[C@H](CO)C1 (stereo partly drawn) [Example 84, N-{10-[3-(4-fluorophenyl)-1,2,4-oxadiazol-5-yl]-4,7,8,9-tetrahydro-5H-4,8-epiminooxocino[5,4-d][1,3]thiazol-2-yl}-N′-[(1r,3r)-3-(hydroxymethyl)cyclobutyl]urea] | 0.62 μm |
| O=C(Nc1nc2c(s1)[C@@H]1COC[C@H](C2)N1c1nc(-c2ccc(F)cc2)no1)N[C@H]1C[C@@H](O)C1 [Example 85, N-{10-[3-(4-fluorophenyl)-1,2,4-oxadiazol-5-yl]-4,7,8,9-tetrahydro-5H-4,8-epiminooxocino[5,4-d][1,3]thiazol-2-yl}-N′-[(1s,3s)-3-hydroxycyclobutyl]urea] | 0.51 μm |
| O=C(Nc1nc2c(s1)[C@@H]1COC[C@H](C2)N1c1nc(-c2ccc(F)cc2)no1)N[C@H]1C[C@H](O)C1 [Example 86, N-{(4S,8S)-10-[3-(4-fluorophenyl)-1,2,4-oxadiazol-5-yl]-4,7,8,9-tetrahydro-5H-4,8-epiminooxocino[5,4-d][1,3]thiazol-2-yl}-N′-[(1r,3S)-3-hydroxycyclobutyl]urea] | 0.25 μm |
| C[C@H](CO)NC(=O)Nc1nc2c(s1)CN(c1nc(C3CCCC(F)(F)C3)no1)CC2 (stereo partly drawn) [Example 87, N-{5-[3-(3,3-difluorocyclohexyl)-1,2,4-oxadiazol-5-yl]-4,5,6,7-tetrahydro[1,3]thiazolo[5,4-c]pyridin-2-yl}-N′-[(2R)-1-hydroxypropan-2-yl]urea] | 2.1 μm |
| CC(C)(O)CNC(=O)Nc1nc2c(s1)CN(c1nc(C3CCC(F)(F)CC3)no1)CC2 [Example 88, N-{5-[3-(4,4-difluorocyclohexyl)-1,2,4-oxadiazol-5-yl]-4,5,6,7-tetrahydro[1,3]thiazolo[5,4-c]pyridin-2-yl}-N′-(2-hydroxy-2-methylpropyl)urea] | 1.1 μm |
| CC(OCC(F)(F)F)c1noc(N2CCc3nc(NC(=O)N[C@H](C)CO)sc3C2)n1 (stereo partly drawn) [Example 89, N-[(2R)-1-hydroxypropan-2-yl]-N′-(5-{3-[1-(2,2,2-trifluoroethoxy)ethyl]-1,2,4-oxadiazol-5-yl}-4,5,6,7-tetrahydro[1,3]thiazolo[5,4-c]pyridin-2-yl)urea] | 2.9 μm |
| CC(C)(CO)NC(=O)Nc1nc2c(s1)[C@@H]1COC[C@H](C2)N1c1nc(-c2ccc(F)cc2)no1 [Example 90, N-{(4S,8S)-10-[3-(4-fluorophenyl)-1,2,4-oxadiazol-5-yl]-4,7,8,9-tetrahydro-5H-4,8-epiminooxocino[5,4-d][1,3]thiazol-2-yl}-N′-(1-hydroxy-2-methylpropan-2-yl)urea] | 2.5 μm |
| C[C@H](CO)NC(=O)Nc1nc2c(s1)CN(c1nc(C(C)(C)OCC(F)(F)F)no1)CC2 [Example 91, N-[(2R)-1-hydroxypropan-2-yl]-N′-(5-{3-[2-(2,2,2-trifluoroethoxy)propan-2-yl]-1,2,4-oxadiazol-5-yl}-4,5,6,7-tetrahydro[1,3]thiazolo[5,4-c]pyridin-2-yl)urea] | 0.81 μm |
| CC(C)(O)CNC(=O)Nc1nc2c(s1)CN(c1nc(C3(C(F)(F)F)CC3)no1)CC2 [Example 92, N-(2-hydroxy-2-methylpropyl)-N′-(5-{3-[1-(trifluoromethyl)cyclopropyl]-1,2,4-oxadiazol-5-yl}-4,5,6,7-tetrahydro[1,3]thiazolo[5,4-c]pyridin-2-yl)urea] | 3.5 μm |
| CNC(=O)Nc1nc2c(s1)CN(c1nc(C34CCC(F)(CC3)C4)no1)CC2 [Example 93, N-{5-[3-(4-fluorobicyclo[2.2.1]heptan-1-yl)-1,2,4-oxadiazol-5-yl]-4,5,6,7-tetrahydro[1,3]thiazolo[5,4-c]pyridin-2-yl}-N′-methylurea] | 0.7 μm |
| CC(C)(O)CNC(=O)Nc1nc2c(s1)CN(c1nc(C3CCC(F)(F)C3)no1)CC2 (stereo not drawn) [Example 94, N-{5-[3-(3,3-difluorocyclopentyl)-1,2,4-oxadiazol-5-yl]-4,5,6,7-tetrahydro[1,3]thiazolo[5,4-c]pyridin-2-yl}-N′-(2-hydroxy-2-methylpropyl)urea] | 1.6 μm |
| O=C(Nc1nc2c(s1)CN(c1nc(C3CC(F)(F)CCO3)no1)CC2)N[C@@H]1CCOC1 (stereo partly drawn) [Example 95, N-{5-[3-(4,4-difluorooxan-2-yl)-1,2,4-oxadiazol-5-yl]-4,5,6,7-tetrahydro[1,3]thiazolo[5,4-c]pyridin-2-yl}-N′-[(3R)-oxolan-3-yl]urea] | 2.2 μm |
| CC(C)(O)CNC(=O)Nc1nc2c(s1)CN(c1nc(C34CC(C(F)F)(C3)C4)no1)CC2 [Example 96, N-(5-{3-[3-(difluoromethyl)bicyclo[1.1.1]pentan-1-yl]-1,2,4-oxadiazol-5-yl}-4,5,6,7-tetrahydro[1,3]thiazolo[5,4-c]pyridin-2-yl)-N′-(2-hydroxy-2-methylpropyl)urea] | 1.6 μm |
| O=C(Nc1nc2c(s1)CN(c1nc(C3(C(F)(F)F)CC3)no1)CC2)N[C@H]1C[C@H](O)C1 [Example 97, N-[(1r,3r)-3-hydroxycyclobutyl]-N′-(5-{3-[1-(trifluoromethyl)cyclopropyl]-1,2,4-oxadiazol-5-yl}-4,5,6,7-tetrahydro[1,3]thiazolo[5,4-c]pyridin-2-yl)urea] | 1.3 μm |
| COCCNC(=O)Nc1nc2c(s1)CN(c1nc(C3CC(F)(F)CCO3)no1)CC2 (stereo not drawn) [Example 98, N-{5-[3-(4,4-difluorooxan-2-yl)-1,2,4-oxadiazol-5-yl]-4,5,6,7-tetrahydro[1,3]thiazolo[5,4-c]pyridin-2-yl}-N′-(2-methoxyethyl)urea] | 2.6 μm |
| O=C(NCc1cncnc1)Nc1nc2c(s1)CN(c1nc(C3CCC(F)(F)CC3)no1)CC2 [Example 99, N-{5-[3-(4,4-difluorocyclohexyl)-1,2,4-oxadiazol-5-yl]-4,5,6,7-tetrahydro[1,3]thiazolo[5,4-c]pyridin-2-yl}-N′-[(pyrimidin-5-yl)methyl]urea] | 1.1 μm |
| COc1cc(-c2noc(N3CCc4nc(NC(=O)NCc5nccn5C)sc4C3)n2)ccc1F [Example 100, N-{5-[3-(4-fluoro-3-methoxyphenyl)-1,2,4-oxadiazol-5-yl]-4,5,6,7-tetrahydro[1,3]thiazolo[5,4-c]pyridin-2-yl}-N′-[(1-methyl-1H-imidazol-2-yl)methyl]urea] | 2.6 μm |
| O=C(NCc1cc[nH]c(=O)c1)Nc1nc2c(s1)CN(c1nc(C3CCC(F)(F)CC3)no1)CC2 [Example 101, N-{5-[3-(4,4-difluorocyclohexyl)-1,2,4-oxadiazol-5-yl]-4,5,6,7-tetrahydro[1,3]thiazolo[5,4-c]pyridin-2-yl}-N′-[(2-oxo-1,2-dihydropyridin-4-yl)methyl]urea] | 1.1 μm |
| O=C(NCc1nnc[nH]1)Nc1nc2c(s1)CN(c1nc(C3CCC(F)(F)CC3)no1)CC2 [Example 102, N-{5-[3-(4,4-difluorocyclohexyl)-1,2,4-oxadiazol-5-yl]-4,5,6,7-tetrahydro[1,3]thiazolo[5,4-c]pyridin-2-yl}-N′-[(4H-1,2,4-triazol-3-yl)methyl]urea] | 0.33 μm |
